According to article PMC11061149, “Protein mimetic 2D FAST rescues alpha synuclein aggregation mediated early and post disease Parkinson’s phenotypes” (Nature Communications, 2024):
Values joined by “and” are separate entries in the source; they are usually repeats but may differ in a detail not shown here. Equal values may be shown once.

What was measured:
αS fibers (PMCA) = target: T1, αS fibers (PMCA) (Homo sapiens, UniProt P37840); assay: Protein misfolding cyclic amplification assay (PMCA), ThT readout; type: biochemical
T1 construct: made in house; host or cells: E. coli BL21(DE3)
Procedure: The PMCA assay was performed according to a previously described protocol. Briefly, an αS solution (100 µM) was prepared in PBS and 60 µL of the solution was placed in a 200 µL Polymerase Chain Reaction (PCR) tube and the mixture was subjected to five 24 h cycles of 1 min shaking (1200 rpm) and 29 min incubation at 37 °C. Every 24 h, 1 µL of αS solution was passaged to seed 60 µL of fresh soluble monomeric αS solution. The seeding cycle was repeated for five days, after which the ThT signal was measured for all five passages. For the preparation of PMCA samples of αS in the presence of NS132, a molar ratio of 1:1 (αS:NS132) was maintained. All experiments were performed in triplicate. The reported ThT intensity values are the average of three separate experiments with the error bars representing the standard deviations.

UA196 worms = assay: ROS level in post-disease onset PD model of UA196 worms; type: in vivo, C. elegans
Procedure: The UA196 worms were bleached, and the eggs were incubated on PLATE 1. On day two, the UA196 worms were transferred (using M9 buffer) on PLATE 2 (without ligand). On day five, 100 UA196 worms were used to determine the ROS level (as described earlier) prior to the treatment with ligands on day five. In tandem, ~200 worms were transferred to PLATE 3 (with ligand) using M9 buffer (10-20 µL) and the plate was incubated at 20 °C in the incubator. On day 8, 100 UA196 worms from PLATE 2 (without ligand) and PLATE 3 (with ligand) were used to determine the ROS level (as described earlier). For each condition, three biological replicates were performed, and 3 technical replicates were used for each biological replicate. […] (n = 3 independent experiments and each n consisted of 3 technical replicates).

αS fibers = target: T2, αS fibers (Homo sapiens, UniProt P37840); assay: Transmission electron microscopy (TEM) of αS solutions; type: biochemical
T2 construct: made in house; host or cells: E. coli BL21(DE3)
Procedure: Transmission Electron Microscopy was used to visualize protein assemblies after aggregation experiments as previously described. Briefly, aliquots (5 μL) of αS solutions (with or without ligands) were applied on glow-discharged carbon-coated 300-mesh copper grids for 2 min and dried using Kimwipes (Kimberly-Clark, Irving, TX). The copper grids were negatively stained for 1 min with uranyl acetate (0.75%, w/v). The micrographs were taken on an FEI Tecnai G2 Biotwin TEM at 80 kV accelerating voltages.

ThT intensity of PMCA sample, individual trials (αS fibers (PMCA); Cycle 1, αS:NS132 1:1, before PK treatment): 58 and 56 and 50 | ThT intensity of PMCA sample, individual trials (αS fibers (PMCA); Cycle 2, αS:NS132 1:1): 63 and 49 and 51 | ThT intensity of PMCA sample, individual trials (αS fibers (PMCA); Cycle 3, αS:NS132 1:1): 57 and 62 and 53 | ThT intensity of PMCA sample, individual trials (αS fibers (PMCA); Cycle 4, αS:NS132 1:1): 60 and 48 and 64 | ThT intensity of PMCA sample, individual trials (αS fibers (PMCA); Cycle 5, αS:NS132 1:1): 86 and 68 and 66 | change in ThT intensity of PMCA samples, in words (αS fibers (PMCA); equimolar ratio, up to cycle five): did not observe any significant change | αS fibers seen in TEM images, in words (αS fibers; 100 µM αS aggregated for four days with ligand): did not observe αS fibers | αS fibers seen in TEM images, in words (αS fibers; fibers-catalyzed aggregation of αS, 60 h, equimolar NS132): significantly fewer αS fibers
SMILES: Cc1ccc(NC(=O)c2ccc(NC(=O)c3ccc([N+](=O)[O-])c(NCCc4c[nH]c5ccccc45)n3)c(NCC3CCCCC3)n2)c(OCC(=O)O)n1 [NS132]
ROS level in UA196 worms, post-disease model, in words (UA196 worms; 50 μM ligand on day five, ROS on day eight): very effective in decreasing the ROS level | ROS level (dye fluorescence), Average (UA196 worms; UA196+NS132, Day 5 (same value as UA196 control)): 1262.3 | ROS level (dye fluorescence), Average (UA196 worms; UA196+NS132, Day 8): 733.721
